Structures can show the parent of a compound that is named as a salt.
How the values were obtained:
H3 receptors = molecular target: T1, H3 receptors (Cavia porcellus, UniProt Q9JI35); experiment: H3-receptor binding assay (guinea pig brain membranes, [3H]R-α-methyl histamine or [3H]Nα-methyl histamine); conditions: for Ki: HCl salt of the indicated compound, read-out: H3 Ave Ki; for inhibition at 2 µg/mL: final concentration 2 μg/ml, HCl salt
T1 construct: The source of the H3 receptors in this experiment was guinea pig brain; from tissue; host or cells: guinea pig brain membranes
T1 sequence (Q9JI35 whole entry): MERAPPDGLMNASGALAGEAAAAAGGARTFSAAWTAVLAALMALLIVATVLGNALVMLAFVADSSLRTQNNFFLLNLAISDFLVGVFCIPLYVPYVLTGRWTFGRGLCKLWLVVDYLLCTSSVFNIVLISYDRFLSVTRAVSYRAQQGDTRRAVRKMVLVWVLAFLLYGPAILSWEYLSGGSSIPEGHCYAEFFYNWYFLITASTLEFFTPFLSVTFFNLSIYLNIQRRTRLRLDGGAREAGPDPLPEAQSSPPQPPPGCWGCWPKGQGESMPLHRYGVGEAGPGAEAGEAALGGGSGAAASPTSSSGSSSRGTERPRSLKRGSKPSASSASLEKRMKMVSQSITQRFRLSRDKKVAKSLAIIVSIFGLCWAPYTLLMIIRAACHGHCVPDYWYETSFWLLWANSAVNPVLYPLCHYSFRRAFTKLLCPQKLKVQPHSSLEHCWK
Description: General Procedure for H3-Receptor Binding Assay
The source of the H3 receptors in this experiment was guinea pig brain. The animals weighed 400-600 g. The brain tissue was homogenized with a solution of 50 mM Tris, pH 7.5. The final concentration of tissue in the homogenization buffer was 10% w/v. The homogenates were centrifuged at 1,000×g for 10 min. in order to remove clumps of tissue and debris. The resulting supernatants were then centrifuged at 50,000×g for 20 min. in order to sediment the membranes, which were next washed three times in homogenization buffer (50,000×g for 20 min. each). The membranes were frozen and stored at −70° C. until needed.
All compounds to be tested were dissolved in DMSO and then diluted into the binding buffer (50 mM Tris, pH 7.5) such that the final concentration was 2 μg/ml with 0.1% DMSO. Membranes were then added (400 μg of protein) to the reaction tubes. The reaction was started by the addition of 3 nM [^3H]R-α-methyl histamine (8.8 Ci/mmol) or 3 nM [^3H]N^α-methyl histamine (80 Ci/mmol) and continued under incubation at 30° C. for 30 min. Bound ligand was separated from unbound ligand by filtration, and the amount of radioactive ligand bound to the membranes was quantitated by liquid scintillation spectrometry. All incubations were performed in duplicate and the standard error was always less than 10%. Compounds that inhibited more than 70% of the specific binding of radioactive ligand to the receptor were serially diluted to determine a Ki (nM). The results are given in the Table 1 for the HCl salt of the indicated compound.

Histamine H1 receptor = molecular target: T2, Histamine H1 receptor (Rattus norvegicus, UniProt P31390); experiment: H1-receptor binding assay (rat brain membranes, [3H]pyrilamine); conditions: for Ki: Cheng-Prusoff from IC50, HCl salt, read-out: H1 Ave Ki; for inhibition at 1 µg/mL: concentration not given (top test concentration 1 μg/ml), HCl salt
T2 construct: The tissue source was male Sprague-Dawley rat brain; tissue Rockland Corporation, Gilbertsville, Pa; host or cells: male Sprague-Dawley rat brain membranes
T2 sequence (P31390 whole entry): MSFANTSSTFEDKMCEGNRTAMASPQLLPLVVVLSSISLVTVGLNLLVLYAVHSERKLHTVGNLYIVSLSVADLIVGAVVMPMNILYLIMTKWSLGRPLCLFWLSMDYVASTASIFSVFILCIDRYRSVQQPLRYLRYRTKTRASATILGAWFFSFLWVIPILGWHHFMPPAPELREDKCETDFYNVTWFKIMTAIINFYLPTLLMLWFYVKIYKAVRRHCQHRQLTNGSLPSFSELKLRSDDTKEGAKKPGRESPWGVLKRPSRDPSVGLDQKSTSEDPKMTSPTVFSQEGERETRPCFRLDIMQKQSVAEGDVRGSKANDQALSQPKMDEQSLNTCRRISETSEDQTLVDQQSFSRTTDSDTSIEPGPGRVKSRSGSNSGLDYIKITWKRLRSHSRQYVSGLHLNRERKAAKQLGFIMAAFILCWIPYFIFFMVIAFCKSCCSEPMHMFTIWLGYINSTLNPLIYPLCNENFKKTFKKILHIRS
Text: General Procedure for H1-Receptor Binding Assay
The procedure used was based on that disclosed in V.T. Tran et al, “Histamine H1 receptors identified in mammalian brain membranes with [H-3]mepyramine”, Proc. Natl. Acad. Sci. U.S.A. 75 (1978) 6290-6294.
I. Tissue Preparation Protocol for Histamine H1 Receptor Binding Assay:
1. The tissue source was male Sprague-Dawley rat brain. These were purchased, stripped and frozen (available from Rockland Corporation, Gilbertsville, Pa.). The buffer used was ice-cold 50 mM Tris-HCl, pH 7.5. (The pH was determined at 25° C.)
2. The brains were spread out on plastic wrap on the benchtop and allowed to thaw for 10-15 min. After this, everything was kept ice-cold.
3. Two brains were put in each 50 ml round bottom centrifuge tube and 25 ml of buffer was added. Then they were broken up with a Polytron (from Brinkmann Instruments, Westbury, N.Y.) equipped with a PT-10 tip at setting 6 for 30 sec.
4. The volume in the tube was brought up to 45 ml and mixed and the particulate material was centrifuged at 1000×g (3000 rpm, SS-34 rotor) for 10 min to remove nuclei and unbroken cells.
5. Pellets were discarded and the supernatants were centrifuged 10 min at 50,000×g (20,000 rpm, SS-34 rotor).
6. The high-speed pellets were resuspended in a volume of Tris buffer equal to the original ([…]), the contents of all tubes were pooled, and a sample was taken for BCA protein assay. The material was aliquotted, 45 ml per round-bottom tube, and the resuspension was recentrifuged. The yield of protein was approximately 20 mg/brain, so there was about 40 mg of protein per tube.
7. Pellets were frozen at −80° C.
1. FDCL and comparative compounds for assay were independently solubilized at 1mg/ml DMSO by vortexing, or if necessary by sonication. The first dilution, 100-fold, was made in 50 mM Tris-HCl, pH 7.5, at room temperature. The three or four subsequent ten-fold serial dilutions were made in 1% DMSO/50 mM Tris-HCl, pH 7.5. Drug solutions and assay plates were kept at room temperature during the course of the assay set up.
2. Test compounds were assayed at four or five concentrations: 1, 0.1, 0.01, 0.001, and 0.0001 μg/ml. Twenty μl of drug solution was pipeted into each of three wells.
3. [^3H]Pyrilamine was diluted approximately 2000-fold with ice-cold […] Tris-HCl, pH 7.5 (to a working concentration of 20-25 nM), and put on ice.
4. A frozen tissue pellet was thawed in a 25° C. water bath, resuspended in 50 mM Tris-HCl, pH 7.5, at 1.7-2 mg/ml by brief break-up on the Polytron, and put on ice.
5. Twenty μl of diluted [^3H]pyrilamine was added to each well.
6. One hundred fifty μl of tissue suspension was added to each well.
7. The top of the plate was covered and it was placed in a 25° C. shaking water bath (about 60 oscillations/min) for 30 min.
8. Samples were filtered on a Tomtec Mach 2 harvester (available from Tomtec Corporation, Orange, Conn.) through a GF/B filter mat (from Wallac, Inc., Gaithersburg, Md.) presoaked in 0.3% polyethylenimine. Each sample was thrice washed with ice-cold 50 mM Tris-HCl, pH 7.5 dried 20 sec on the Tomtec, and dried 3-4 min in a microwave oven on a paper towel. The filter was impregnated with MELTILEX brand wax scintillant (from Wallac Corporation) and counted on a Betaplate scintillation counter (from Wallac Corporation).
9. Specific binding was determined as the difference between total and nonspecific binding. The percent inhibition in the presence of inhibitor or standard was determined using the formula: [1-(sample binding-nonspecific binding)/specific binding]×100 For compounds that inhibit more than 50% at 1 μg/ml, an IC50 value was interpolated from proximate concentrations. […]

Row | Ki (H3 receptors) | Ki (Histamine H1 receptor) | inhibition at 2 µg/mL (H3 receptors) | inhibition at 1 µg/mL (Histamine H1 receptor) | melting point | SMILES
1 | – | 24 nM | 5% | 84% | – | Cn1cnc(CN2CCN(C3c4ccc(Cl)cc4CCc4cccnc43)CC2)c1 (centres unmarked)
2 | 173 nM | 7.5 nM | – | – | – | Clc1ccc2c(c1)CCc1cccnc1C2N1CCN(CCCc2c[nH]cn2)CC1 (centres unmarked)
3 | 42 nM | 14.3 nM | – | – | – | Clc1ccc2c(c1)CCc1cccnc1C2C1CCN(CCCCc2c[nH]cn2)CC1 (centres unmarked)
4 | 32 nM | 12.5 nM | – | – | – | Clc1ccc2c(c1)CCc1cccnc1C2N1CCN(CCCCCc2c[nH]cn2)CC1 (centres unmarked)
5 | 41 nM | 8 nM | – | – | – | Clc1ccc2c(c1)CCc1cccnc1C2N1CCN(CCCCCCc2c[nH]cn2)CC1 (centres unmarked)
6 | 47 nM | 250 nM | – | – | – | O=C(NCCCCc1c[nH]cn1)N1CCN(C2c3ccc(Cl)cc3CCc3cccnc32)CC1 (centres unmarked)
7 | – | – | – | – | 164 to 170 °C (dec.) | Clc1ccc2c(c1)CCc1cccnc1C2C1CCN(CCCCCc2c[nH]cn2)CC1 (centres unmarked) (as salt: hydrochloride) [Example 13, 8-chloro-6,11-dihydro-11-[1-[5-(1H-imidazol-4-yl)pentyl]-4-piperidinyl]-5H-benzo[5,6]cyclohepta[1,2-b]pyridine]
8 | – | – | – | – | 190.5 to 192 °C (dec.) | Clc1ccc2c(c1)CCc1cccnc1C2N1CCN(Cc2c[nH]cn2)CC1 (racemic) (as salt: HCl) (hydrate or solvate) [1-(8-Chloro-6,11-dihydro-5H-benzo[5,6]cyclohepta[1,2-b]pyridin-11-yl)-4-[(1H-imidazol-4-yl)-methyl]-piperazine]
9 | – | 1.2 nM | 15% | – | – | Clc1ccc2c(c1)CCc1cccnc1C2C1CCN(Cc2c[nH]cn2)CC1 (single isomer, unassigned) [drawing 60]
10 | 133 nM | 15.4 nM | – | – | – | Clc1ccc2c(c1)CCc1cccnc1C2N1CCN(Cc2c[nH]cn2)CC1 (single isomer, unassigned; (-)) [(−)-(8-Chloro-6,11-dihydro-5H-benzo[5,6]cyclohepta[1,2-b]pyridin-11-yl)-4-[(1H-imidazol-4-yl)methyl]-piperazine]

The next lines start with the molecule.

Row | SMILES | Ki (H3 receptors) | Ki (Histamine H1 receptor) | inhibition at 2 µg/mL (H3 receptors) | inhibition at 1 µg/mL (Histamine H1 receptor) | melting point
11 | Clc1ccc2c(c1)CCc1cccnc1C2=C1CCN(Cc2c[nH]cn2)CC1 | 660 nM | 16 nM | – | – | –
12 | Clc1ccc2c(c1)CCc1cccnc1C2N1CCN(CCc2c[nH]cn2)CC1 (centres unmarked) | – | 5.6 nM | 53% | – | –
13 | O=C(CCc1c[nH]cn1)N1CCC(=C2c3ccc(Cl)cc3CCc3cccnc32)CC1 | – | – | 47% | – | –
14 | Clc1ccc2c(c1)CCc1cccnc1C2=C1CCN(CCCc2c[nH]cn2)CC1 | 260 nM | 4.1 nM | – | – | –
15 | O=C(c1c[nH]cn1)N1CCN(C2c3ccc(Cl)cc3CCc3cccnc32)CC1 (centres unmarked) | – | 300 nM | 18% | 42% | –
16 | Clc1ccc2c(c1)CCc1cccnc1C2N1CCN(CCCCc2c[nH]cn2)CC1 (centres unmarked) | 68.5 nM | 31.5 nM | – | – | –
17 | Clc1ccc2c(c1)CCc1cccnc1C2=C1CCN(CCCCc2c[nH]cn2)CC1 | 25.2 nM | 10.5 nM | – | – | –
18 | O=C(CCc1c[nH]cn1)N1CCN(C2c3ccc(Cl)cc3CCc3cccnc32)CC1 (centres unmarked) | – | 200 nM | 44% | – | –
19 | Clc1ccc2c(c1)CCc1cccnc1C2C1CCN(CCCCCc2c[nH]cn2)CC1 (centres unmarked) | 22.5 nM | 7 nM | – | – | –
20 | Clc1ccc2c(c1)CCc1cccnc1C2=C1CCN(CCCCCc2c[nH]cn2)CC1 | 26.5 nM | 2.5 nM | – | – | –
21 | Clc1ccc2c(c1)CCc1cccnc1C2C1CCN(CCCCCCc2c[nH]cn2)CC1 (centres unmarked) | 27.5 nM | 5.5 nM | – | – | –
22 | Clc1ccc2c(c1)CCc1cccnc1C2=C1CCN(CCCCCCc2c[nH]cn2)CC1 | 33.5 nM | 12 nM | – | – | –
23 | O=C(OCCCCc1c[nH]cn1)N1CCN(C2c3ccc(Cl)cc3CCc3cccnc32)CC1 (centres unmarked) | 148 nM | – | – | 36% | –
24 | Clc1ccc2c(c1)CCc1cccnc1C2N1CCN(CCCCc2c[nH]cn2)CC1 (centres unmarked) (as salt: HCl) [Example 12, 8-Chloro-6,11-dihydro-11-[4-[4-(1H-imidazol4-yl)butyl]-1-piperazinyl]-5H-benzo[5,6]cyclohepta[1,2-b]pyridine] | – | – | – | – | 165 to 170 °C (dec.)
25 | Clc1ccc2c(c1)CCc1cccnc1C2=C1CCN(CCCCCCc2c[nH]cn2)CC1 (as salt: hydrochloride) (hydrate or solvate) [Example 14, 8-Chloro-6,11-dihydro-11-[1-[6-(1H-imidazol-4-yl)hexyl]-4-piperidinylidene]-5H-benzo[5,6]cyclohepta[1,2-b]pyridine] | – | – | – | – | 162 to 165 °C (dec.)
26 | Clc1ccc2c(c1)CCc1cccnc1C2N1CCN(Cc2c[nH]cn2)CC1 (racemic) [1-(8-Chloro-6,11-dihydro-5H-benzo[5,6]cyclohepta[1,2-b]pyridin-11-yl)-4-[(1H-imidazol-4-yl)-methyl]-piperazine] | 150 nM | 36.8 nM | – | – | –
27 | Clc1ccc2c(c1)CCc1cccnc1C2C1CCN(Cc2c[nH]cn2)CC1 (single isomer, unassigned) [drawing 61] | 91 nM | 182 nM | – | – | –
28 | Clc1ccc2c(c1)CCc1cccnc1C2N1CCN(Cc2c[nH]cn2)CC1 (single isomer, unassigned; (+)) [(+)-(8-Chloro-6,11-dihydro-5H-benzo[5,6]cyclohepta[1,2-b]pyridin-11-yl)-4-[(1H-imidazol-4-yl)methyl]-piperazine] | 121 nM | 4.6 nM | – | – | –
